Reference: patent US8598124B2, “Peptides derived from HMG-CoA reductase and cosmetic and/or pharmaceutical composition containing same” (ISP Investments Inc., priority 2008, dated 2013)
Where no end group is shown, it is not given here.

What was measured:
Format in all cases: cell-based
[1] = system: normal human dermal fibroblasts; test: Ultrastructural study of caveolae in human fibroblasts; conditions: 0.5 ppm (1% of stock solution at 50 ppm), 48 hours
Method: The goal of this study is to study at the ultrastructural level the caveolae in human dermal fibroblasts.
Protocol: Normal human dermal fibroblasts in culture are treated with a 1% stock solution at 50 ppm of peptide SEQ ID No. 4 for 48 hours (the medium in the presence of the active ingredient is changed every 24 hours).

HMG-CoA reductase [2] = test: Expression of HMG-CoA reductase in normal human keratinocytes (immunofluorescence); conditions: 0.5 ppm, 48 hours
Method: The goal of this study is to determine the influence of peptide SEQ ID No. 4 on the expression of HMG-CoA reductase in normal human keratinocytes.
Protocol: Normal human dermal keratinocytes in culture are treated with a 1% stock solution at 50 ppm of peptide SEQ ID No. 4 for 48 hours (the medium in the presence of the active ingredient is changed every 24 hours). The cells are then washed and fixed in cold methanol for 4 minutes at 4° C. The cells are incubated in the presence of a polyclonal rabbit antibody specific for HMG-CoA reductase (Millipore, Upstate), and then a secondary antibody coupled with a fluorescent dye. The cells are then examined by epifluorescence microscope (Nikon Eclipse E600 microscope).

[3] = system: normal human keratinocytes; test: Ultrastructural study of lamellar bodies in human keratinocytes (transmission electron microscopy); conditions: 48 hours
Method: The goal of this study is to study in an ultrastructural manner, in transmission electron microscopy, keratinocytes treated by peptide SEQ ID No. 5 at 0.5 ppm.
Normal human keratinocytes in culture are treated with a 1% stock solution at 50 ppm of peptide SEQ ID No. 5 for 48 hours (the medium in the presence of the active ingredient is changed every 24 hours). The cells are washed in PBS, and then are fixed by Karnosky hypertonic fixation (4% paraformaldehyde, 5% glutaraldehyde in a 0.08M phosphate buffer) 1 hour at ambient temperature and then 24 hours at 4° C. The cells are detached from the support by scraping and centrifuged 5 minutes at 1000 rpm. The supernatant is eliminated and a 1M sodium cacodylate buffer is deposited on the residue. The cells are mixed with 2% agar and then postfixed by osmium tetraoxide for 1 hour. The specimens are then dehydrated by successive passages in a series of alcohol (from 50 to 100%). The cells are then coated in a resin. The polymerization is carried out for approximately 12 hours at 60° C. Semi-thin sections of 0.5 μm are made with an ultramicrotome. The sections are deposited on a heat bonded slide and then colored with toluidine blue. The slides are then dehydrated again and mounted in a suitable medium. […]

[4] = system: normal human keratinocytes; test: Differentiation study of human keratinocytes (pankeratin immunofluorescence); conditions: 0.5 ppm, 48 hours, anti-cytopankeratin antibody, epifluorescence microscope
Method: The goal of this study is to determine the influence of peptide SEQ ID No. 5 on epidermal differentiation.
Protocol: Normal human keratinocytes in culture are treated with a 1% stock solution at 50 ppm of peptide SEQ ID No. 4 for 48 hours (the medium in the presence of the active ingredient is changed every 24 hours). The cells are then washed and fixed with cold methanol for 4 minutes at 4° C.

[5] = system: normal human keratinocytes; test: Protective effect on skin cells subjected to UVB radiation (MTT cellular viability); conditions: 0.5 ppm, 24 hours before and 24 hours after UVB 50 mJ/cm^2, versus untreated irradiated control
Method: The goal of this study is to determine the protective effect of peptide SEQ ID No. 5 with relation to normal human keratinocytes subjected to stress by UVB radiation. To do this, cellular viability tests were conducted by the MTT technique.
Protocol: The normal human keratinocytes are treated with a 1% solution, a solution at 50 ppm of peptide SEQ ID No. 5, for 24 hours, irradiated by UVB (50 mJ/cm^2) and then cultivated again 24 hours in the presence of the same concentration of peptide SEQ ID No. 5. Untreated and irradiated controls are carried out under the same conditions. At the end of the experiment, the cells are incubated in a solution containing 0.1 mg/ml of MTT (3-[4,5-dimethylthiazol-2-yl]-2,5-diphenyltetrazolium bromide). This compound is absorbed by the living cells and then metabolized by mitochondrial enzymes into a blue violet compound, formazan, that will be assayed by spectrophotometry at 540 nm. The optical density (O.D.) Is then directly proportional to the mitochondrial enzymatic activity as well as to the number of living cells.

HMG-CoA reductase [6] = test: Expression of HMG-CoA reductase in skin biopsies (immunolabelling); conditions: 0.5 ppm applied topically on human skin samples in culture, 24 hours or 48 hours
Method: The goal of this study is to determine the influence of peptide SEQ ID No. 5 on the expression of HMG-CoA reductase.
Protocol: Samples of human skin are placed in culture at the air/liquid interface. A 1% stock solution at 50 ppm of peptide SEQ ID No. 5 is applied topically and then the samples are incubated for 24 hours or 48 hours.
These skin samples are then fixed with formaldehyde and then enclosed in paraffin. Sections of 2 to 3 μm are then made. Immunolabelling is carried out after unmasking the specific sites by microwave treatment and then incubation in trypsin. Immunolabelling is carried out by using a polyclonal rabbit antibody specific for HMG-CoA reductase (Millipore, Upstate), and then a secondary antibody, coupled with a fluorescent dye. The skin sections are then examined by epifluorescence microscope (Nikon Eclipse E600 microscope).

| HMG-CoA reductase immunofluorescence in the upper layers of the epidermis, relative to untreated control (HMG-CoA reductase [6]) | Substance | caveolae in treated cells in comparison with untreated control cells [1] | HMG-CoA reductase cytoplasmic immunofluorescence in treated cells (HMG-CoA reductase [2]) | Golgi complex development / production of lamellar bodies (Odland bodies) versus control cells ([3]; 0.5 ppm (1% of stock solution at 50 ppm), transmission electron microscopy) | lipid synthesis in normal human keratinocytes ([3]; 0.5 ppm, inferred from ultrastructural study) | expression of pankeratins [4] | increase of cellular viability after UVB irradiation (MTT) [5] |
| --- | --- | --- | --- | --- | --- | --- | --- |
|  | Arg-Gly-Lys-Ser (RGKS) [Peptide SEQ ID No. 4] | significant increase in caveolae | more intense cytoplasmic fluorescence |  |  |  |  |
| stronger fluorescence | Arg-Gly-Lys-Ser-NH2 (RGKS-NH2) [Peptide SEQ ID No. 5] |  |  | Golgi complex is substantially more developed than in the control cells | capable of inducing an increase in lipid synthesis | increases the expression of pankeratins | 16% |
